{
  "source": "patent US20160052955A1",
  "about": "(SLOAN-KETTERING INSTITUTE FOR CANCER RESEARCH, priority 2013, published 2016)",
  "biological_target": "SETDB1Full-length (Homo sapiens, UniProt Q15047)",
  "assay": "Filter-paper methyltransferase assay, SETDB1",
  "type": "biochemical",
  "data": [
    {"smiles": "Nc1ncnc2c1ncn2[C@@H]1O[C@H](C[C@@H](N)CC[C@H](N)C(=O)O)[C@@H](O)[C@H]1O", "note": "[Sinefungin, sinefungin, reference compound]", "values": [
      {"measurement": "IC50", "value": 8, "unit": "µM"}
    ]}
  ]
}
